# Measurements: patent US9642831B2, “Substituted chromanes and method of use” (AbbVie S.á.r.l., priority 2014, dated 2017)
# Legend:
# F508delCFTR [1] = biological target: T1, F508delCFTR (Homo sapiens, UniProt P13569, DEL508-508); assay: Transepithelial Clamp Circuit (TECC-24) conductance assay on primary human bronchial epithelial cells (hBE-TECC); assay type: cell-based; parameters: cells isolated from CF patients with the homozygous mutation; endogenous in cells; host or cells: primary human bronchial epithelial (hBE) cells from F508del/F508del CF patients; conditions: for EC50: primary hBE cells from F508del/F508delCFTR patients, corrector 18-24 hours at 37° C., equivalent short circuit current (Ieq), with control potentiator 1 μM; for Emax: relative to positive control (3 μM Example 1 coupled with control potentiator = 100%), primary hBE F508del/F508del cells, read-out: Maximum % activity (%)
# T1 sequence (P13569 with tags, fused parts or gaps DEL508-508): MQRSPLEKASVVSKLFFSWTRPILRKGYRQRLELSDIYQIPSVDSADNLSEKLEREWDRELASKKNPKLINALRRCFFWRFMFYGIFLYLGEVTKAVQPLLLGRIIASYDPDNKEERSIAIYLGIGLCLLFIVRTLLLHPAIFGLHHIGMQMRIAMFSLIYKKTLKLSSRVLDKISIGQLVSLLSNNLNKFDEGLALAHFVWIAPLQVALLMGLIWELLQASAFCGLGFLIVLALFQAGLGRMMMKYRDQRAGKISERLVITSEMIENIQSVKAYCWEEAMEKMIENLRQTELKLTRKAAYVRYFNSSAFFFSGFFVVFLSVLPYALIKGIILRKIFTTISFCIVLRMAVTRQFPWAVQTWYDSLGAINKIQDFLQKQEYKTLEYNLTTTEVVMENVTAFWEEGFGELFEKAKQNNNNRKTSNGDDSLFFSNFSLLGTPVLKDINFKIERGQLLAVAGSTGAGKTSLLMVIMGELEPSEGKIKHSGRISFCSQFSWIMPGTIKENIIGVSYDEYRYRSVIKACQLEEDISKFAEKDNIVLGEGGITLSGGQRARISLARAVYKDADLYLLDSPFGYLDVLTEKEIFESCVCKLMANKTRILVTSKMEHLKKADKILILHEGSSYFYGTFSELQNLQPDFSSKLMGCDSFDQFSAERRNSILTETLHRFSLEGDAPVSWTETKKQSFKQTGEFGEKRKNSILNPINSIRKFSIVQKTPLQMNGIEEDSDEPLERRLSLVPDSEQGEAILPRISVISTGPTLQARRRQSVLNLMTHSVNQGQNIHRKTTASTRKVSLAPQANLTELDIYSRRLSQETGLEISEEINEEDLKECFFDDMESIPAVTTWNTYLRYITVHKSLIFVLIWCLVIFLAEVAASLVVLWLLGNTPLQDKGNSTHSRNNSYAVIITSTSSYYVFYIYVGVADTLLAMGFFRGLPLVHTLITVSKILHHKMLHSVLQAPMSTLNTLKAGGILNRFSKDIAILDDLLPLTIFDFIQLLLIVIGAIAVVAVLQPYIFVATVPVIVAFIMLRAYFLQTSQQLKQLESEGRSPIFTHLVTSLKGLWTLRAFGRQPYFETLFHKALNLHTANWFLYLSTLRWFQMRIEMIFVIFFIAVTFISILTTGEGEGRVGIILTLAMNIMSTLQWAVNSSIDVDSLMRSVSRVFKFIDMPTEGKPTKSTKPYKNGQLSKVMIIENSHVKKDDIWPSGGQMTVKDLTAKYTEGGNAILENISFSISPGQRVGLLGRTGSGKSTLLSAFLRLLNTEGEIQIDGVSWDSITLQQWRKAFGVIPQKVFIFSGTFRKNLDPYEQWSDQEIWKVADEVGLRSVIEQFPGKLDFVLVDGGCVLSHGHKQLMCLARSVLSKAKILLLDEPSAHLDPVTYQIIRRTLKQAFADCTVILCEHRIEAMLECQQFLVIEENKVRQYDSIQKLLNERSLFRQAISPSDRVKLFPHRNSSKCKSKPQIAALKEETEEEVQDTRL
# Text: Transepithelial Clamp Circuit on Human Bronchial Epithelial Cells Conductance Assay:
# A cell based assay using the primary human bronchial epithelial cells (hBE) was used as a secondary assay to test novel F508delCFTR correctors for their activity on primary hBE cells with F508del/F508del CFTR mutation. The assay used a TECC-24 (Transepithelial Clamp Circuit for 24 wells) instrument that measures the functionality of the mutated channel by measuring the equivalent short circuit current (Ieq) generated by the polarized epithelial cells. The instrument works by measuring the transepithelial potential difference (Vt) and transepithelial resistance (Rt) in an open circuit format, and the Ieq is calculated by using Ohms law (Ieq=Vt/Rt). The assay was run in a 24-well format and all 24-wells were measured at the same time point giving a higher throughput for this assay.
# Primary human bronchial epithelial (hBE) cells from F508del/F508delCFTR patients were expanded from 1×10^6 to 250×10^6 cells (Neuberger T, Burton B, Clark H and VanGoor F; Cystic Fibrosis, Methods in Mole Biol 741; eds. Amaral M D and Kunzelmann K, 2011). For this purpose, cells isolated from CF patients with the homozygous mutation were seeded onto 24 well Corning (Cat #3378) filter plates that were coated with 3T3 conditioned media and grown at an air-liquid interface for 35 days using an Ultroser® G supplemented differentiation media. Apical surface mucus was removed 72 hours before the experiment using 3 mM dithiothreitol (DTT) in phosphate buffered saline (PBS). The apical surface was washed again 24 hours before the experiment using PBS. The cells were incubated with the desired dose response of the corrector compounds 18-24 hours at 37° C., 5% CO2. The corrector compounds are only added on the basolateral side of the epithelial cells.
# On the day of measuring the corrector activity on the TECC, the cells were switched into a bicarbonate and serum free F-12 Coon's medium and allowed to equilibrate for 90 minutes in a CO2 free incubator. At the time of measurement, the apical and basolateral sides of the filter were bathed with the F-12 Coon's modification media (with 20 mM 4-(2-hydroxyethyl)-1-piperazineethanesulfonic acid (HEPES), pH 7.4 (using 1 M tris(hydroxymethyl)aminormethane (Tris)), and the measurements were made at 36.5° C. Transepithelial voltage (Vt) and transepithelial resistance (Rt) were measured using a 24 channel transepithelial current clamp (TECC-24). Current responses to the sequential addition of benzamil (apical 6 μM addition; for inhibiting epithelial ENaC channel), forskolin (apical and basolateral 10 μM addition; for activating the CFTR channel), control potentiator (N-(3-carbamoyl-5,5,7,7-tetramethyl-4,7-dihydro-5H-thieno[2,3-c]pyran-2-yl)-1H-pyrazole-5-carboxamide; apical and basolateral 1 μM addition; for potentiating the CFTR channel) and bumetanide (basolateral 20 μM addition; for inhibiting the Na:2Cl:K co-transporter, an indirect measure of inhibiting the Cl-secretion driven by CFTR channel) were measured.
# All plates contained negative controls (dimethyl sulfoxide, DMSO) which coupled with the control potentiator (N-(3-carbamoyl-5,5,7,7-tetramethyl-4,7-dihydro-5H-thieno[2,3-c]pyran-2-yl)-1H-pyrazole-5-carboxamide) sets the null response and positive controls (3 μM of 3-[(2R,4R)-4-({[1-(2,2-difluoro-1,3-benzodioxol-5-yl)cyclopropyl]carbonyl}amino)-7-methoxy-3,4-dihydro-2H-chromen-2-yl]benzoic acid) coupled with the control potentiator sets the 100% response to measure the correction of the mutated CFTR channel. The maximum percent activity is reported relative to the positive control value.
# The % activity measured at each of the 6 test concentrations of the test compound was normalized to the on-plate positive control using the following formula: % activity=[(test compound response−DMSO response)/(positive control response−DMSO response)]*100 […]
# F508delCFTR [2] = biological target: T1, F508delCFTR; assay: Cell Surface Expression-Horse Radish Peroxidase (CSE-HRP) assay; assay type: cell-based; parameters: expressed in transfected cells; host or cells: CFBE41o- human lung derived epithelial cell line, doxycycline-inducible; conditions: CFBE4lo-F508delCFTR-HRP cells; for EC50: 18-24 hours at 33° C., 8-point curve, highest concentration 20 μM, luminescence readout
# Outline: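 Following 18-24 h compound exposure at 33° C. Expression was doxycycline-induced beforehand. % activity versus DMSO and a 3 μM corrector control gave maximum activity and EC50 from a variable-Hill sigmoidal fit.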
# [3] = maximum % activity at any tested concentration, normalized to on-plate positive control (3 μM Example 1)
Molecule,EC50 (F508delCFTR [1]),Emax (F508delCFTR [1]),EC50 (F508delCFTR [2]),Emax (F508delCFTR [2]; [3]),Maximum % activity (%) (F508delCFTR [2]; [3])
"O=C(O)c1cccc([C@H]2C[C@@H](NC(=O)C3(c4ccc5c(c4)OC(F)(F)O5)CC3)c3ccc(OC(F)F)cc3O2)c1 [Example 27, 3-[(2R,4R)-4-({[1-(2,2-difluoro-1,3-benzodioxol-5-yl)cyclopropyl]carbonyl}amino)-7-(difluoromethoxy)-3,4-dihydro-2H-chromen-2-yl]benzoic acid]",0.075 µM,117%,0.12 µM,113%,–
"COc1ccc2c(c1)O[C@@H](C13CC(C(=O)O)(C1)C3)C[C@H]2NC(=O)C1(c2ccc3c(c2)OC(F)(F)O3)CC1 (racemic) [Example 148, rac-3-[(2R,4R)-4-({[1-(2,2-difluoro-1,3-benzodioxol-5-yl)cyclopropyl]carbonyl}amino)-7-methoxy-3,4-dihydro-2H-chromen-2-yl]bicyclo[1.1.1]pentane-1-carboxylic acid]",1.1 µM,44%,2.12 µM,77%,–
"N-[2-(3,4-dichlorophenyl)-3,4-dihydro-2H-chromen-4-yl]-1-(2,2-difluoro-1,3-benzodioxol-5-yl)cyclopropanecarboxamide [Example 66]",–,–,6.1 µM,–,89%
"COc1ccc2c(c1)O[C@@H](C(=O)N1CCC(O)CC1)C[C@@H]2NC(=O)C1(c2ccc3c(c2)OC(F)(F)O3)CC1 (racemic) [Example 186, rac-1-(2,2-difluoro-1,3-benzodioxol-5-yl)-N-{(2R,4S)-2-[(4-hydroxypiperidin-1-yl)carbonyl]-7-methoxy-3,4-dihydro-2H-chromen-4-yl}cyclopropanecarboxamide]",–,–,1.36 µM,66%,–
"CCOC(=O)c1cnc([C@@H]2C[C@H](NC(=O)C3(c4ccc5c(c4)OC(F)(F)O5)CC3)c3ccccc3O2)s1 (stereo in doubt) [Example 132, ethyl rel-2-[(2S,4S)-4-({[1-(2,2-difluoro-1,3-benzodioxol-5-yl)cyclopropyl]carbonyl}amino)-3,4-dihydro-2H-chromen-2-yl]-1,3-thiazole-5-carboxylate]",–,–,3.44 µM,86%,–
"O=C(O)c1csc([C@@H]2C[C@H](NC(=O)C3(c4ccc5c(c4)OC(F)(F)O5)CC3)c3ccccc3O2)n1 (stereo in doubt) [Example 143, rel-2-[(2S,4S)-4-({[1-(2,2-difluoro-1,3-benzodioxol-5-yl)cyclopropyl]carbonyl}amino)-3,4-dihydro-2H-chromen-2-yl]-1,3-thiazole-4-carboxylic acid]",–,–,8.5 µM,27%,–
"O=C(N[C@@H]1CC(CF)(CF)Oc2cc(F)ccc21)C1(c2ccc3c(c2)OC(F)(F)O3)CC1 [Example 79, 1-(2,2-difluoro-1,3-benzodioxol-5-yl)-N-[(4R)-7-fluoro-2,2-bis(fluoromethyl)-3,4-dihydro-2H-chromen-4-yl]cyclopropanecarboxamide]",–,–,7.25 µM,117%,–

# Second part, the molecule after the results:
EC50 (F508delCFTR [1]),Emax (F508delCFTR [1]),EC50 (F508delCFTR [2]),Emax (F508delCFTR [2]; [3]),Maximum % activity (%) (F508delCFTR [2]; [3]),Molecule
0.45 µM,80%,0.88 µM,71%,–,"O=C(O)c1cccc([C@H]2C[C@@H](NC(=O)C3(c4ccc5c(c4)OC(F)(F)O5)CC3)c3cccc(F)c3O2)c1 [Example 119, 3-[(2R,4R)-4-({[1-(2,2-difluoro-1,3-benzodioxol-5-yl)cyclopropyl]carbonyl}amino)-8-fluoro-3,4-dihydro-2H-chromen-2-yl]benzoic acid]"
–,–,0.37 µM,108%,–,"CCOC(=O)c1csc([C@H]2C[C@@H](NC(=O)C3(c4ccc5c(c4)OC(F)(F)O5)CC3)c3ccc(OC)cc3O2)n1 (stereo in doubt) [Example 155, ethyl rel-2-[(2R,4R)-4-({[1-(2,2-difluoro-1,3-benzodioxol-5-yl)cyclopropyl]carbonyl}amino)-7-methoxy-3,4-dihydro-2H-chromen-2-yl]-1,3-thiazole-4-carboxylate]"
–,–,0.42 µM,106%,–,"CCOC(=O)c1ccc([C@H]2C[C@@H](NC(=O)C3(c4ccc5c(c4)OC(F)(F)O5)CC3)c3ccccc3O2)nc1 (racemic) [Example 150, ethyl rac-6-[(2R,4R)-4-({[1-(2,2-difluoro-1,3-benzodioxol-5-yl)cyclopropyl]carbonyl}amino)-3,4-dihydro-2H-chromen-2-yl]pyridine-3-carboxylate]"
–,–,4.57 µM,118%,–,"Cc1ccc2c(c1)[C@@H](NC(=O)C1(c3ccc4c(c3)OC(F)(F)O4)CC1)C[C@H](c1cccc(C(=O)O)c1)O2 [Example 13, 3-[(2R,4S)-4-({[1-(2,2-difluoro-1,3-benzodioxol-5-yl)cyclopropyl]carbonyl}amino)-6-methyl-3,4-dihydro-2H-chromen-2-yl]benzoic acid]"
–,–,1.19 µM,73%,–,"COc1ccc2c(c1)O[C@H](c1ccc(OC)c(OC)c1)C[C@@H]2NC(=O)C1(c2ccc3c(c2)OC(F)(F)O3)CC1 [Example 4, 1-(2,2-difluoro-1,3-benzodioxol-5-yl)-N-[(2S,4S)-2-(3,4-dimethoxyphenyl)-7-methoxy-3,4-dihydro-2H-chromen-4-yl]cyclopropanecarboxamide]"
–,–,≥ 20 µM,14%,–,"COc1cccc([C@H]2C[C@@H](NC(=O)C3(c4ccc5c(c4)OC(F)(F)O5)CC3)c3cc(C(=O)O)ccc3O2)c1 [Example 44, (2R,4R)-4-({[1-(2,2-difluoro-1,3-benzodioxol-5-yl)cyclopropyl]carbonyl}amino)-2-(3-methoxyphenyl)-3,4-dihydro-2H-chromene-6-carboxylic acid]"
–,–,1.55 µM,65%,–,"COc1ccc2c(c1)O[C@@H](C(=O)NC(C)(C)CO)C[C@H]2NC(=O)C1(c2ccc3c(c2)OC(F)(F)O3)CC1 (racemic) [Example 170, rac-(2R,4R)-4-({[1-(2,2-difluoro-1,3-benzodioxol-5-yl)cyclopropyl]carbonyl}amino)-N-(1-hydroxy-2-methylpropan-2-yl)-7-methoxy-3,4-dihydro-2H-chromene-2-carboxamide]"
–,–,0.05 µM,115%,–,"COC(=O)c1ccc([C@H]2C[C@@H](NC(=O)C3(c4ccc5c(c4)OC(F)(F)O5)CC3)c3ccc(OC(F)F)cc3O2)cc1 [Example 123, methyl 4-[(2R,4R)-4-({[1-(2,2-difluoro-1,3-benzodioxol-5-yl)cyclopropyl]carbonyl}amino)-7-(difluoromethoxy)-3,4-dihydro-2H-chromen-2-yl]benzoate]"
–,–,5.28 µM,95%,–,"O=C(N[C@@H]1CC2(CCCC2)Oc2ccccc21)C1(c2ccc3c(c2)OC(F)(F)O3)CC1 [Example 78, 1-(2,2-difluoro-1,3-benzodioxol-5-yl)-N-[(4R)-3,4-dihydrospiro[chromene-2,1′-cyclopentan]-4-yl]cyclopropanecarboxamide]"
